From BindingDB's records for doi:10.1016/s1074-5521(98)90632-9 (Merck Research Laboratories, 1998)
pIC50: −log10 of the molar value.

Columns and labels:
Dipeptidase 1 = target: T1, Dipeptidase 1 (Homo sapiens, UniProt P16444); assay: Dehydropeptidase I Assay; details: pH 7; 37 °C
T1 sequence (P16444 whole entry): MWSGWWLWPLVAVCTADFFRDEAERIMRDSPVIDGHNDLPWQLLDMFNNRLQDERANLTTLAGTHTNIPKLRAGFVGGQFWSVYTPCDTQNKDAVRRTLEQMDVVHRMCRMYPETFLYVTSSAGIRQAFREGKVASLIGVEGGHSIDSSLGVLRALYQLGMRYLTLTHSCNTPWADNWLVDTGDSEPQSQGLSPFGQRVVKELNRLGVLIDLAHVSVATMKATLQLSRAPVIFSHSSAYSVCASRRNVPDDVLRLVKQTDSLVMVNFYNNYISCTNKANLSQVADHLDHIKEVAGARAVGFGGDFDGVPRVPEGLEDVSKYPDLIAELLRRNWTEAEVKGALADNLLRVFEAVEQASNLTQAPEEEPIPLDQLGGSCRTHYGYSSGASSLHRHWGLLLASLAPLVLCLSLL
Description: Enzyme inhibition assay by biphenyl tetrazoles (BPTS)using dehydropeptidase 1 (DPH-1).

Beta-lactamase = target: T2, Beta-lactamase (Bacteroides fragilis, UniProt Q8KZP2); assay: Metallo-Beta-Lactamase Assay; details: pH 7; 37 °C
T2 sequence (Q8KZP2 whole entry): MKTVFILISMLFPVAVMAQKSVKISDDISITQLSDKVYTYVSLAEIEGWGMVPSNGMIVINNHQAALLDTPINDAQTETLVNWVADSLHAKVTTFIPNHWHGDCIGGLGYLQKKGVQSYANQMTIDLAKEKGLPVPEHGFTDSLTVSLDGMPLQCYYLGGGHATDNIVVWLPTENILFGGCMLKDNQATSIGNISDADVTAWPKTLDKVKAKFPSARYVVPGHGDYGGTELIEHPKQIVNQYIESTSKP
Description: Enzyme inhibition assay by biphenyl tetrazoles (BPTS)using metallo-beta-lactamase.

Compound | pIC50 (Dipeptidase 1) | pIC50 (Beta-lactamase)
c1ccc(-c2nnn[nH]2)c(-c2ccc(Cn3cnc4cccnc43)cc2)c1 [L-809-558] | < 3.60 | 4.38
Cc1ccnc2c1nc(C(C)C)n2Cc1ccc(-c2ccccc2-c2nnn[nH]2)cc1 [L-158-817] | < 4.00 | 5.74
CCCc1nc2ccc(Cl)nc2n1Cc1ccc(-c2ccccc2-c2nnn[nH]2)cc1 [L-158-678] | 3.62 | 5.46
Cc1nc2ccccc2n1Cc1ccc(-c2ccccc2-c2nnn[nH]2)cc1 [L-809-559] | < 3.60 | 5.40
CCCc1nc(CC)c(C=O)n1Cc1ccc(-c2ccccc2-c2nnn[nH]2)cc1 | 3.72 | 5.15
CCCCc1nc2ccc(O)cc2c(=O)n1Cc1ccc(-c2ccccc2-c2nnn[nH]2)cc1 | < 4.00 | 5.72
Cc1ccc(-c2ccccc2-c2nnn[nH]2)cc1 [L-158,507] | < 3.00 | 3.80

Next, values leading:

pIC50 (Dipeptidase 1) | pIC50 (Beta-lactamase) | Compound
< 4.00 | 5.22 | Oc1ccc2c3c(n(Cc4ccc(-c5ccccc5-c5nnn[nH]5)cc4)c2c1)C=CCC3 [L-809,370]
3.92 | 6.52 | C1=Cc2c(c3ccccc3n2Cc2ccc(-c3ccccc3-c3nnn[nH]3)cc2)CC1 [L-161,189]
< 4.00 | 4.38 | C1=Cc2[nH]c3cc(OCc4ccc(-c5ccccc5-c5nnn[nH]5)cc4)ccc3c2CC1 [L-809,339]
< 4.00 | 6.40 | CCCCc1nc2c(c(=O)n1Cc1ccc(-c3ccccc3-c3nnn[nH]3)cc1)SCC2 [L-159,906]
< 3.30 | 3.96 | c1ccc(-c2nnn[nH]2)c(-c2ccc(Cn3cnc4ccccc43)cc2)c1 [L-808,509]
< 3.00 | 3.07 | c1ccc(-c2ccccc2-c2nn[nH]n2)cc1 [L-809,022]
